The target of assay [1] is T1, Replicative DNA helicase DnaB (Mycobacterium tuberculosis, UniProt P9WMR3).
T1 sequence (P9WMR3 whole entry): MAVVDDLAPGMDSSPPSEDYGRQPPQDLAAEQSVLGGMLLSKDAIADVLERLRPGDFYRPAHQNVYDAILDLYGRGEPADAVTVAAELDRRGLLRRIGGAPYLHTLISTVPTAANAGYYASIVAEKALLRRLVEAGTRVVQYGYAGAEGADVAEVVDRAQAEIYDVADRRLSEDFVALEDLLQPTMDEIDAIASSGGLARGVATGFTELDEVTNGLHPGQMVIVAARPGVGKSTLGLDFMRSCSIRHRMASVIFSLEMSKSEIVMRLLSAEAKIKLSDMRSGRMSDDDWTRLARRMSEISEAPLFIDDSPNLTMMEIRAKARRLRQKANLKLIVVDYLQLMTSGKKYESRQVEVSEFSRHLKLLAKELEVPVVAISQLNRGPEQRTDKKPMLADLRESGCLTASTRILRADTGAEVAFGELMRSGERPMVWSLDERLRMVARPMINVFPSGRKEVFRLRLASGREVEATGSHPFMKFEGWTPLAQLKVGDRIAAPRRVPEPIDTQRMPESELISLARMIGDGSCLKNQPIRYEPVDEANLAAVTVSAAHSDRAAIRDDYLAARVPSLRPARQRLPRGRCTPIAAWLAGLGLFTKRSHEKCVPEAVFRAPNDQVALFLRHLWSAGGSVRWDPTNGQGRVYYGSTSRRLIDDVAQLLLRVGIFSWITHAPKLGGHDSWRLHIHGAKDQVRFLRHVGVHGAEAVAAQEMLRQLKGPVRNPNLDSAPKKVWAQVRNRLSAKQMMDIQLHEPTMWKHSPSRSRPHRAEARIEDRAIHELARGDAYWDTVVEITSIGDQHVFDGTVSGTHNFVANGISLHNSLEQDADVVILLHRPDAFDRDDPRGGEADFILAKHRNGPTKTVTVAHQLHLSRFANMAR
Description: DnaB intein splicing inhibitors, dose response, biochemical, cell-free fluorescence (AID 449749). The class given is functional.

Assay [2] addresses Heat shock protein HSP 90-alpha (Homo sapiens, UniProt P07900). The assay is classed as functional, organism-based.
Assay [3] deals with T2, Protein RecA (Mycobacterium tuberculosis, UniProt P9WHJ3).
T2 sequence (P9WHJ3 whole entry): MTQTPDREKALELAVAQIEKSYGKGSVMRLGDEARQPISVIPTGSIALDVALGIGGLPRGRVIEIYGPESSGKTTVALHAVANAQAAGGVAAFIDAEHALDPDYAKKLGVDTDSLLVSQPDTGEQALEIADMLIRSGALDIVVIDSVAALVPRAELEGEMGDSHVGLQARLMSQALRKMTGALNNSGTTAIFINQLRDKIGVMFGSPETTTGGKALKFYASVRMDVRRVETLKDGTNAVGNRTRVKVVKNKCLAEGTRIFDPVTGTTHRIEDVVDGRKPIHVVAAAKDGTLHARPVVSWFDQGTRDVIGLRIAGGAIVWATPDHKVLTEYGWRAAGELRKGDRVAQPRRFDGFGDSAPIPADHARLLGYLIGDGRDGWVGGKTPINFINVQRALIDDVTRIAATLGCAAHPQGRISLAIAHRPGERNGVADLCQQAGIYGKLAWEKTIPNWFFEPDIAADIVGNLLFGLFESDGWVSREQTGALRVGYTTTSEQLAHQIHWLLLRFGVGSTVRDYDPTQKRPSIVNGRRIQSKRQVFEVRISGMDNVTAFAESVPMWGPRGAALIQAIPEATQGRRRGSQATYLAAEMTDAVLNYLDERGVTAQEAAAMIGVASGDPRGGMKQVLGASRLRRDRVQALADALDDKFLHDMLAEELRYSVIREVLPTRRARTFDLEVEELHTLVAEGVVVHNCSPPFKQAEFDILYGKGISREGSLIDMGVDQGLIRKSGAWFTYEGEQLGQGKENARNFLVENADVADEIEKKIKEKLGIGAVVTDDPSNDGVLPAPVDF
Description: Fluorescence Cell-Free Homogeneous Dose Retest to Identify Inhibitors of RecA-Intein Splicing Activity. [Related pubchem assays (depositor defined):AID2097, AID2223, AID489010, AID492950]. The assay is classed as functional.

For assay [4], the system named is INS1. Description: beta cell apoptosis inhibitors, cytokine rescue, dose response, luminescence, retest (AID 449756).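 Note: cell death triggered by IL-1 beta plus TNF-alpha plus IFN-gamma mixture; protective hits raise ATP signal compared with cytokine alone wells.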 The class given is functional, cell-based. As to conditions: Rattus norvegicus.
The nature of assay [5]: Shn3 3'UTR reporter inhibitors, dose response, cell-based, Clone20 osteoblasts, firefly luciferase, cherry-picked (AID 624132).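 Note: firefly luciferase luminescence from reporter carrying the Shn3 3'UTR in osteoblasts.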 The class given is functional.
In assay [6] the target is ATP-binding cassette sub-family B member 6 (Homo sapiens, UniProt Q9NP58). Description: ABCB6 transporter inhibitors, dose response, K562-ABCB6 cells, flow cytometry, cherry pick 1 (AID 623955). The class given is functional. As to conditions: read-out: EC50_MICROM.
Assay [7] in a line: HepG2 cell cytotoxicity, dose response, cytotoxicity control for Shn3 inhibitor project, CellTiter-Glo, cherry-picked (AID 624134). The assay is classed as functional, cell-based. (ATP-based viability assays read luminescence as a measure of living cells.)
Assay [8] can be described thus: control 3'UTR Renilla luciferase suppression, dose response, counter-screen for Shn3 inhibitor project, cell-based, Clone20-Shn3RL, cherry-picked (AID 624133). The class given is functional. (In general: A counterscreen serves to expose hits that act by an unwanted route or on another target.)
The target of assay [9] is Potassium voltage-gated channel subfamily KQT member 2 (Rattus norvegicus, UniProt O88943). Briefly: KCNQ2 potassium channel inhibitors, dose response, cell-based, automated electrophysiology, set II, rat KCNQ2 (AID 588637). The class given is functional.
Assay [10] concerns the target Melanocortin receptor 4 (Homo sapiens, UniProt P32245). The assay is classed as functional, cell-based.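 Note: Cell-based assay with luminescence read-out, confirmatory dose-response testing for agonist activity of biased ligands at MC4R; human U2OS cells with tagged receptor and beta-arrestin; potency of agonists that increase receptor coupling to beta-arrestin.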
The target in assay [11] is T3, DNA repair protein RAD52 homolog (Homo sapiens, UniProt P43351).
T3 sequence (P43351 whole entry): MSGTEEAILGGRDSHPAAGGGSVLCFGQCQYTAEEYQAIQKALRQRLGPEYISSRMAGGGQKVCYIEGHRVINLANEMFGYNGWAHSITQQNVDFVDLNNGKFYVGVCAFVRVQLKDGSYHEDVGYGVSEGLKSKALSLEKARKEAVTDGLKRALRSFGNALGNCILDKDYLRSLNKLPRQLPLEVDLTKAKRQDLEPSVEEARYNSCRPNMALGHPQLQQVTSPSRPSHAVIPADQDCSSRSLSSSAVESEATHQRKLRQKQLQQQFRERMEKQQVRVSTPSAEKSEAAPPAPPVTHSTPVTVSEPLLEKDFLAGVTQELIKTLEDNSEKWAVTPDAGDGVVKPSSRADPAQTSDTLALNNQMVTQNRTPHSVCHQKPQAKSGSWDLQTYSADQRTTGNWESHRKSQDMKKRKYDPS
The class given is functional, biochemical.

Assay [12] has as its system H9c2. Description: cells. The assay is classed as functional, cell-based. As to conditions: Rattus norvegicus, H9c2, Myocardium.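 Note: confirmatory concentration-response retest of ultra-high-throughput screening hits for modulation of myocardial damage; cell death induced by hydrogen peroxide oxidative stress; compound pretreatment for 60 min then peroxide exposure for 2 h; potency is for protecting the cells against peroxide damage rather than for killing them.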
For assay [13], the target named is T4, ATP-dependent translocase ABCB1 (Homo sapiens, UniProt P08183). Briefly: ABCG2 efflux pump inhibitor potency, dose response, Ig-MXP3 cells, JC-1, flow cytometry, set 2 (AID 504566).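 Note: flow cytometry median green fluorescence of retained JC-1 dye; potency of efflux pump inhibition measured as rising substrate retention.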 The class given is functional. The following applies: read-out: EC50_MICROM_. (In flow cytometry, cells or beads pass a laser one at a time.)
Assay [14] concerns the target T4, ATP-dependent translocase ABCB1. Description: ABCB1 efflux inhibitor potency, dose response, Jurkat-DNR cells, JC-1, flow cytometry, set 2 (AID 504569).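 Note: potency of pump inhibitors that raise cellular JC-1 green fluorescence up to the nicardipine level.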 The assay is classed as functional. The following applies: read-out: EC50_MICROM_.
Assay [15] can be described thus: miR-122 activators in hepatoma reporter cells, dose response, cell-based, Huh7 psiCHECK-miR122, Renilla luciferase, cherry-picked (AID 651956).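 Note: huh7 hepatoma cells stably carrying a psiCHECK-2 miR-122 sensor plasmid; renilla luciferase signal reporting endogenous miR-122 activity after 48 h compound exposure.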 The class given is functional.
Assay [16] in a line: HEK293T cytotoxicity, dose response, cytotoxicity control for miR-122 modulator project, cell-based, activator set, cherry-pick (AID 720690).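 Note: HEK293T human cells scored for general mammalian cytotoxicity.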 The assay is classed as functional.
The target in assay [17] is T5, Mitochondrial peptide methionine sulfoxide reductase (Bos taurus, UniProt P54149).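 Note: absorbance read-out, biochemical high-throughput dose-response screen for MsrA inhibitors, confirmatory; recombinant bovine MsrA coupled to E. coli TrxB with NADPH and selenocystamine; potency is for inhibitors of MsrA activity on DMSO substrate.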
T5 sequence (P54149 whole entry): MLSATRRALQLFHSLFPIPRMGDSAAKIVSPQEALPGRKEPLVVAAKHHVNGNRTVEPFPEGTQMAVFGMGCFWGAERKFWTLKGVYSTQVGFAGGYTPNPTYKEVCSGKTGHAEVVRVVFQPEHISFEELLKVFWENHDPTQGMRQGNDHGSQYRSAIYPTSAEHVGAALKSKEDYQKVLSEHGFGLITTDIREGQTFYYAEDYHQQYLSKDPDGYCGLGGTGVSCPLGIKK
The class given is functional.

The record followed here is ChEMBL document CHEMBL1201862, “PubChem BioAssay data set” (2004).

The source made the active and inactive calls.

T4 sequence (P08183 whole entry): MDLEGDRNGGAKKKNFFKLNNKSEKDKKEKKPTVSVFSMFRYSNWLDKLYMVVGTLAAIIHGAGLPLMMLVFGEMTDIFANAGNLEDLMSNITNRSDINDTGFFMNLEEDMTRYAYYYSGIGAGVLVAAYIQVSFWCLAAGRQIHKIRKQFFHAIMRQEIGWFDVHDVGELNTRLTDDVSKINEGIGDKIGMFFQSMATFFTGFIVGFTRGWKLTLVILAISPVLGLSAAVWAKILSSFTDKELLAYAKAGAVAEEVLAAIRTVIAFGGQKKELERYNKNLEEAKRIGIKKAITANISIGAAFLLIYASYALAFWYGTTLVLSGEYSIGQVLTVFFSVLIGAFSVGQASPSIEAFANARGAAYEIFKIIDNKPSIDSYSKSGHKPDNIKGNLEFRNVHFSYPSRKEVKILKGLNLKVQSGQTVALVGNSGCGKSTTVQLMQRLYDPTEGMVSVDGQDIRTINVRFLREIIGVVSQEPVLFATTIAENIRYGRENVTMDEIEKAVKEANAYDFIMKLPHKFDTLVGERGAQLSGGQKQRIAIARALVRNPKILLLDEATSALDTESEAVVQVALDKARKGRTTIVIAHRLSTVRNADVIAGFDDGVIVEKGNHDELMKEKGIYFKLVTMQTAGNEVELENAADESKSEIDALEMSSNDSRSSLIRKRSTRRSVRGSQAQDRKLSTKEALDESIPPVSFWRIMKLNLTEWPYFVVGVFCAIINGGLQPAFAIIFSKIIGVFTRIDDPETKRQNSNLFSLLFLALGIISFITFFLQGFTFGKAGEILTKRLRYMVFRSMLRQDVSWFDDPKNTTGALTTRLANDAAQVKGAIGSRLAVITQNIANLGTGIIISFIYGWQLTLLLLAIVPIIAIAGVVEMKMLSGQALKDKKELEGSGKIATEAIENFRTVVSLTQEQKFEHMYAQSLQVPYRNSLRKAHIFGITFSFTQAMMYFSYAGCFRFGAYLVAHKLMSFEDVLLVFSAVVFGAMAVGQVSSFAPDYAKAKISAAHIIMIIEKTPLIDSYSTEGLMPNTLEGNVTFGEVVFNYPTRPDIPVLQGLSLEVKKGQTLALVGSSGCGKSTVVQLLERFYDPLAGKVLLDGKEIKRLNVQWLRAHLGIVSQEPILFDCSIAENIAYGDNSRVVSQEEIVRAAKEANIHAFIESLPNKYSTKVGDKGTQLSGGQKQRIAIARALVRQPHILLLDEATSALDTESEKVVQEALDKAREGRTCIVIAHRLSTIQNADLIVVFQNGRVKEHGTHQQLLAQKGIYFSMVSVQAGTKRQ
ATP-binding cassette sub-family B member 6, sequence (Q9NP58 whole entry): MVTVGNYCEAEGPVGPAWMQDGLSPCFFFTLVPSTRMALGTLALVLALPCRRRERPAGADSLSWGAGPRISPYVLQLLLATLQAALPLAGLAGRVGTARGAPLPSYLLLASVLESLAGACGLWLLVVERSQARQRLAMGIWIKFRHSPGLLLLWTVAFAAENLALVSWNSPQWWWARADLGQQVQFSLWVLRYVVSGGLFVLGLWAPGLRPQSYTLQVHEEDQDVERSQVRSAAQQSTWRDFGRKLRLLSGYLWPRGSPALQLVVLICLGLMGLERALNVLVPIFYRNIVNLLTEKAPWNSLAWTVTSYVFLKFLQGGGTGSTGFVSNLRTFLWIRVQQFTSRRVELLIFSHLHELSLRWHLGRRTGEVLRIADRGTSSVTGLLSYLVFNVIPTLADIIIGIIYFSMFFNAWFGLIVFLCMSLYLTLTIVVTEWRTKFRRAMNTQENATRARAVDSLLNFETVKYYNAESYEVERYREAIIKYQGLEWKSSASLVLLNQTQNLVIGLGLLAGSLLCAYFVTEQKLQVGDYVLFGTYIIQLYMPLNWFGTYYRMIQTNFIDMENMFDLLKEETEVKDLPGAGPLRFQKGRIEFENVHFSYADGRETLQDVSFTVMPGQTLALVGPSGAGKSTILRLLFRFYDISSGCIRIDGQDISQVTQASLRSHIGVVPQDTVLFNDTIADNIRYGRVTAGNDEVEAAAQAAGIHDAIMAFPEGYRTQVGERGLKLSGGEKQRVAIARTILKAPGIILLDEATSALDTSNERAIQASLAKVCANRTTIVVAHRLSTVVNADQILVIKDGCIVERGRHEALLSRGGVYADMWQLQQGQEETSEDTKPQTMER
Potassium voltage-gated channel subfamily KQT member 2, sequence (O88943 whole entry): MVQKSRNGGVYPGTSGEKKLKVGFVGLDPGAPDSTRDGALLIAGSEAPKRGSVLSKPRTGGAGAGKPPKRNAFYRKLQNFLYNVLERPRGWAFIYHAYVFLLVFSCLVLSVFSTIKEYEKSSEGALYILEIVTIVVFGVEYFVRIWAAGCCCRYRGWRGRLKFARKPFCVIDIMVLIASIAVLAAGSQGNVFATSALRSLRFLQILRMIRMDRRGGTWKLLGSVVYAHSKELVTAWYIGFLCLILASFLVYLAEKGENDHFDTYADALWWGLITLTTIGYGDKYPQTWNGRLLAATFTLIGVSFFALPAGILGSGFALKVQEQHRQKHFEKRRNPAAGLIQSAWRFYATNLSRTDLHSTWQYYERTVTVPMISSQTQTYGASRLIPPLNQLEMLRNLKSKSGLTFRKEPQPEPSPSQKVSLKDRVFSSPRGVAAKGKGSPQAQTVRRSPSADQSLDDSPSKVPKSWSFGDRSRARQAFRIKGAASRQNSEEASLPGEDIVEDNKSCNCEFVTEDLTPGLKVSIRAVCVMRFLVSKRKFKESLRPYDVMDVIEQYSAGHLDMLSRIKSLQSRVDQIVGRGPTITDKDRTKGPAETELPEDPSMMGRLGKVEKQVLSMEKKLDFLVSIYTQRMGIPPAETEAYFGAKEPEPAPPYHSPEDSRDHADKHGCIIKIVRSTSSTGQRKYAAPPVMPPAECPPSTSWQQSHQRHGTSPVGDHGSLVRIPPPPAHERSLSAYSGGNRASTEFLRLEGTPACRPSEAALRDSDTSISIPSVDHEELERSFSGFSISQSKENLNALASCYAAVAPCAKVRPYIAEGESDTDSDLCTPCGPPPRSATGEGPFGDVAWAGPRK
Melanocortin receptor 4, sequence (P32245 whole entry): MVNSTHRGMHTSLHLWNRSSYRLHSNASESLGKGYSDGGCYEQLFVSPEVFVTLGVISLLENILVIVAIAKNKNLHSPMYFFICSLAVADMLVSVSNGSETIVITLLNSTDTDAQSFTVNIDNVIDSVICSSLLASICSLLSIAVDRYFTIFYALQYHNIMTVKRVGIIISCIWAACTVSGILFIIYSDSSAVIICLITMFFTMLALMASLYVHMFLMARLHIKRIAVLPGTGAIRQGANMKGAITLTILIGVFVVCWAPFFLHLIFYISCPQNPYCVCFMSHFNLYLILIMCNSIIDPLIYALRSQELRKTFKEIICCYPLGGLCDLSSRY

Usually AC50 stands for the midpoint of the concentration-response curve, whichever way the signal moves. Regarding `Cc1cccc(NC(=O)c2nc(S(=O)(=O)Cc3ccccc3)ncc2Cl)c1`, the half-maximal activity concentration (AC50) in assay [1] was 21.9 µM (active); in assay [2], 2.42 µM (active); in assay [4], 10.3 µM (active); in [5], 2.66 µM (active); in [7], 17.5 µM (active); in [8] it was 6.26 µM (active). Also, the figures for the EC50 in assay [3] and in assay [6] were 10.6 µM (active) and 21.5 µM (active), respectively.

The IC50 is the midpoint of a concentration-inhibition curve. For the molecule `CN1/C(=C\C(=S)NC(=O)c2cccc(Br)c2)C(C)(C)c2ccccc21`, the IC50 in assay [9] is 4.27 µM (active). Further, the AC50 in assay [4] is 3.96 µM (active).

In the case of `CCCCCCCCCCCCCCCC[n+]1cccc(C(=O)N(CC)CC)c1`, the AC50 is 9.18 µM (active) in assay [2] and 5.29 µM (active) in assay [11]. Also, the EC50 in [10] is > 89.2 µM (inactive).

Regarding `COc1ccccc1-c1cc2nc(-c3ccccc3)cc(N3CCN(C(=O)c4ccoc4)CC3)n2n1`, in [12], the IC50 is > 79 µM (inactive). Besides, the figures for the EC50 in assay [13] and in assay [14] were 0.34 µM (active) and 2.7 µM (active), respectively.

In the case of `C[C@H]1CCCCO[C@H](CN(C)Cc2ccc3c(c2)OCO3)[C@@H](C)CN([C@@H](C)CO)C(=O)c2cc(NC(=O)Nc3cccc4ccccc34)ccc2O1`, the AC50 in [15] and in assay [16] was 10 µM (active) throughout.

Consider `Cc1cc(C(=O)N/N=C/C=C/c2ccc([N+](=O)[O-])cc2)[nH]n1`, for which the IC50 in [17] is 155 µM (inactive).
